Read-outs that look alike come from different tables or passages of the source.
Experiments:
Assay type in all cases: in vivo
[1] = system: Phytophthora infestans; conditions: tomato seedlings, sprayed to run-off 17 h after inoculation
[2] = system: Phytophthora infestans; conditions: tomato seedlings, sprayed to run-off the day before inoculation
[3] = system: Plasmopara viticola; experiment: Test A: grape downy mildew, test suspension sprayed after inoculation, visual disease rating; conditions: grape seedlings, sprayed to run-off 24 h after inoculation
[4] = no asterisk, test concentration not given

SMILES	Test C rating (disease control) ([1]; compound tested at 40 ppm) [%]	Test B rating (disease control) ([2]; compound tested at 40 ppm) [%]	Test A rating (disease control) ([3]; compound tested at 40 ppm) [%]	Test C rating (disease control) [1, 4] [%]	Test B rating (disease control) [2, 4] [%]	Test A rating (disease control) [3, 4] [%]
Cc1cc(C(F)(F)F)nn1CCC(=O)N1CCC(c2nc(C(=O)N(C)[C@@H]3CCCc4ccccc43)cs2)CC1 [Compound 5, N-methyl-2-[1-[3-[5-methyl-3-(trifluoromethyl)-1H-pyrazol-1-yl]-1-oxopropyl]-4-piperidinyl]-N-[(1R)-1,2,3,4-tetrahydro-1-naphthalenyl]-4-thiazolecarboxamide]	0	57	17	–	–	–
Cc1cc(C(F)(F)F)nn1CC(=O)N1CCC(c2nc(CN(C)[C@@H]3CCCc4ccccc43)cs2)CC1 [Compound 1, 1-[4-[4-[[methyl[(1R)-1,2,3,4-tetrahydro-1-naphthalenyl]amino]methyl]-2-thiazolyl]-1-piperidinyl]-2-[5-methyl-3-(trifluoromethyl)-1H-pyrazol-1-yl]ethanone]	–	–	–	99	100	72
Cc1cc(C(F)(F)F)nn1CC(=O)N1CCC(c2nc(CN(C=O)[C@@H]3CCCc4ccccc43)cs2)CC1 [Compound 4, N-[[2-[1-[2-[5-methyl-3-(trifluoromethyl)-1H-pyrazol-1-yl]acetyl]-4-piperidinyl]-4-thiazolyl]methyl]-N-[(1R)-1,2,3,4-tatrahydro-1-naphthalenyl]formamide]	–	–	–	26	87	0
CC(=O)N(Cc1csc(C2CCN(C(=O)Cn3nc(C(F)(F)F)cc3C)CC2)n1)[C@@H]1CCCc2ccccc21 [Compound 3, N-[[2-[1-[2-[5-methyl-3-(trifluoromethyl)-1H-pyrazol-1-yl]acetyl]-4-piperidinyl]-4-thiazolyl]methyl]-N-[(1R)-1,2,3,4-tetrahydro-1-naphthalenyl]acetamide]	–	–	–	53	85	55
CCOC(=O)C(C(=O)N1CCC(c2nc(C(=O)N(C)C3CCCc4ccccc43)cs2)CC1)n1nc(C(F)(F)F)cc1C (stereo not drawn) [Compound 6, ethyl 4-[4-[[methyl(1,2,3,4-tetrahydro-1-naphthalenyl)amino]carbonyl]-2-thiazolyl]-α-[5-methyl-3-(trifluoromethyl)-1H-pyrazol-1-yl]-β-oxo-1-piperidinepropanoate]	0	17	72	–	–	–
Cc1cc(C(F)(F)F)nn1CC(=O)N1CCC(c2nc(CN[C@@H]3CCCc4ccccc43)cs2)CC1 [Compound 2, 2-[5-methyl-3-(trifluoromethyl)-1H-pyrazol-1-yl]-1-[4-[4-[[[(1R)-1,2,3,4-tetrahydro-1-naphthalenyl]amino]methyl]-2-thiazolyl]-1-piperidinyl]ethanone]	–	–	–	93	100	28
